Results as given in patent publication US6455466B1, “Compositions and methods for preventing leaf yellowing in plants” (The Regents of the University of California, priority 2000, dated 2002).

Legend:
[1] = tested on: cut flowers of Alstroemeria (cv. diamond); assay: Leaf chlorophyll content / leaf yellowing of cut Alstroemeria flowers held in treatment solution; assay type: in vivo
Protocol: The model system used in the experiments was cut stems of Alstroemeria an important cut flower whose flowers normally long outlast the relatively short-lived leaves.
In a preliminary experiment with cut flowers of Alstroemeria (cv. diamond), the flowers were placed in deionized water (DI) or a solution containing 1 μM TDZ. The chlorophyll content of the leaves was measured as described by Lichenhaler, Methods in Enzymology […] (1987). […] By 20 days, there was no detectable chlorophyll in the leaves of the control flowers (see, FIG. 1).

[2] = tested on: plants; conditions: cited from earlier work

Question: Which results are given for `O=C(Nc1ccccc1)Nc1cnns1` [TDZ, 1-phenyl-3-(1,2,3-thiadiazol-5-yl)urea]?
Answer: chlorophyll content of the leaves versus flowers held in deionized water ([1]; 1 μM TDZ solution, by 10 days): significantly higher than the concentration in leaves of flowers held in DI; effectiveness of 24 hour pulse pre-treatment ([1]; 24 hour pulse pre-treatment with 10 μM TDZ compared with continuous 1 μM TDZ): as effective as continuous treatment with 1 μM TDZ; chlorophyll content of the leaves ([1]; cut Alstroemeria flowers placed in solution containing 1 μM TDZ, throughout the experiment (FIG. 1)): remained high throughout the experiment; effectiveness compared with BAP or GA3 ([1]; subsequent experiments, cut Alstroemeria flowers): much more effective than BAP or GA3; metabolism by plants [2]: plants do not metabolize it
